Data: US20250213558A1, “T-TYPE CALCIUM CHANNEL MODULATORS COMPRISING A PIPERAZINE OR 1,4-DIAZEPANE CORE AND METHODS OF USE THEREOF” (Praxis Precision Medicines, Inc., priority 2022, published 2025)
Like-named read-outs stand apart in the source and are kept apart here.

Molecular target: T1, Human Cav3.1 calcium channel (Homo sapiens, UniProt O43497)
T1 construct: expressed in transfected cells; host or cells: HEK-293 natClytin/TASK1+Cav3.1 cell line
Assay: Human Cav3.1 calcium channel patch clamp assay (SyncroPatch 384PE; single point and IC50, voltage dependent block)
Format: cell-based
Conditions: for % Inhibition (Single Point Data): patch clamp
How it was run: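 Automated whole-cell patch clamp at room temperature, cells held at −120 mV; 100 ms step to −20 mV (resting block), then 1600 ms at −65 mV and a second −20 mV step (voltage-dependent block), every 15 s. Peak currents averaged over last 3 sweeps; % inhibition relative to nickel-sensitive current.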

[1] = Testing Conc 1.25, HEK-293 natClytin/TASK1+Cav3.1 cell line
[2] = voltage dependent block (VDB), HEK-293 natClytin/TASK1+Cav3.1 cell line, read-out: Cav3.1 IC50
[3] = Testing Conc 1, HEK-293 natClytin/TASK1+Cav3.1 cell line

T1 sequence (O43497 whole entry): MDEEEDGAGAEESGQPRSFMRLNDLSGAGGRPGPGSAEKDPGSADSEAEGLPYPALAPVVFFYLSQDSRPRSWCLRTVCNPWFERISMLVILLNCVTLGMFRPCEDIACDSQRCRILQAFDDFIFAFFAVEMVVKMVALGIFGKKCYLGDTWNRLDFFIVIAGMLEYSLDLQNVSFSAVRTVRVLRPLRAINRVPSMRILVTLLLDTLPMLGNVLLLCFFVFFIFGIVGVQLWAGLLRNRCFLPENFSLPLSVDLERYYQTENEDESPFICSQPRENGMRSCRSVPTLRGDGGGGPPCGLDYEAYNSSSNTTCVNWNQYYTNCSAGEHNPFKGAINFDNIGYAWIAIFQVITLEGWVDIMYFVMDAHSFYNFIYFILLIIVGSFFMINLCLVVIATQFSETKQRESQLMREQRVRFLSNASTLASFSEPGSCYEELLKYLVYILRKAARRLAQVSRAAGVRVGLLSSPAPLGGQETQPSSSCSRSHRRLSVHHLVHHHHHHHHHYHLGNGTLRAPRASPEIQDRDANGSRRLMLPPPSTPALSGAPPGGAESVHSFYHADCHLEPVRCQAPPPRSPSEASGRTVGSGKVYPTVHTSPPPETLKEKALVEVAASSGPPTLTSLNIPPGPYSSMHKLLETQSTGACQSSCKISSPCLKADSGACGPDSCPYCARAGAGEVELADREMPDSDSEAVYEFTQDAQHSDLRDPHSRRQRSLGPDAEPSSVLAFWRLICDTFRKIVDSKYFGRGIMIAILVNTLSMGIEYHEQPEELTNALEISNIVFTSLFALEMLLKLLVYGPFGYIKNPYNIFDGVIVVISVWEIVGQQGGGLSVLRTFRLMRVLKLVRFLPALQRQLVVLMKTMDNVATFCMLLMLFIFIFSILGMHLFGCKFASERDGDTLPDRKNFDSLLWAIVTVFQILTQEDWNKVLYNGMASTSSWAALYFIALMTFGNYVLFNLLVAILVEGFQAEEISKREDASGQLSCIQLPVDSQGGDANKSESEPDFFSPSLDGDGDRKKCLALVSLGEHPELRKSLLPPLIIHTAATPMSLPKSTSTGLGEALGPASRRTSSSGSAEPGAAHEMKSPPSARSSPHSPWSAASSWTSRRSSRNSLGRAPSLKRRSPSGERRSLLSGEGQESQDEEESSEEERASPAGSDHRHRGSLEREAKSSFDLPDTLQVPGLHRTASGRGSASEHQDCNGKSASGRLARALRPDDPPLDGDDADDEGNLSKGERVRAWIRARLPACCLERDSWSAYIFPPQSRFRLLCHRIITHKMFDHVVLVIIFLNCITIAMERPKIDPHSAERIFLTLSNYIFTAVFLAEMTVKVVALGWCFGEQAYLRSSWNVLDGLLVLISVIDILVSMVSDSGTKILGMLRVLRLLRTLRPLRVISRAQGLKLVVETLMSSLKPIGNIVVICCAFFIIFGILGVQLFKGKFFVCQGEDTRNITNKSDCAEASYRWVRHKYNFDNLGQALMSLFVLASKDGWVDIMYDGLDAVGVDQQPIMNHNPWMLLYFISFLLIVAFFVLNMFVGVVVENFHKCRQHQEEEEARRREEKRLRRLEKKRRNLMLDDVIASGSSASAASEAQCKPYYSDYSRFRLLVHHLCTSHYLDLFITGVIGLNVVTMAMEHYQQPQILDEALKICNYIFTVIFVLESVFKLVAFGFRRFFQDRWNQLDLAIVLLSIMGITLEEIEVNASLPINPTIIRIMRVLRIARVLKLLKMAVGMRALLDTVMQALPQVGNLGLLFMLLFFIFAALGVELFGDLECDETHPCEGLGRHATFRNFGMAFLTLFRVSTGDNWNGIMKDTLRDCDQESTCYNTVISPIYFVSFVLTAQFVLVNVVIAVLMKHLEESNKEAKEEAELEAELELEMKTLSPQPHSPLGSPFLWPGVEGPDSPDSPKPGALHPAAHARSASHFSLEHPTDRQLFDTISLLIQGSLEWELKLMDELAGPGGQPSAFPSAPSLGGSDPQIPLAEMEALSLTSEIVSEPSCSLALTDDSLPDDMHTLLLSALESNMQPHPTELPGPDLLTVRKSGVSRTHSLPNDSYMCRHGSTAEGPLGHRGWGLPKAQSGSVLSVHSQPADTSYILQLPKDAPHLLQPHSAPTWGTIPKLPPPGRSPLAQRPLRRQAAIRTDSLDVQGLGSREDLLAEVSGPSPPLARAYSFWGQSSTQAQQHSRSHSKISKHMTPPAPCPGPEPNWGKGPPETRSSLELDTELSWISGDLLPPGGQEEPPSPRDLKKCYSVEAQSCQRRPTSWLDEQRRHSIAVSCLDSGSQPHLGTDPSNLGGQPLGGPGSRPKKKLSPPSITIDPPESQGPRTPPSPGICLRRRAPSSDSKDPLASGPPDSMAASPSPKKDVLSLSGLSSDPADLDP

IC50 [2] [nM] | % Inhibition (Single Point Data) [3] [%] | SMILES | % Inhibition (Single Point Data) [1] [%] | IC50 [nM]
185 |  | CC(C)(C)NC(=O)CN1C2CC(CNC(=O)c3cc(F)cc(Cl)c3)CC1C2 (centres unmarked) [Compound 322] | 91.88 | 
 |  | COC1(CCN2C3CCC2CN(Cc2nc4c(Cl)cc(F)cc4[nH]2)C3)CCCC1 [Compound 89] | 98.148 | 
94 |  | COc1cc(NC(=O)CN2C[C@@H]3C[C@H]2CN3CC(=O)NC(C)(C)C)cc(F)c1F [Compound 354] |  | 
71.2 |  | CC(C)(C)NC(=O)CN1C[C@@H]2C[C@H]1CN2CC(=O)Nc1cc(Cl)cc(Cl)c1 [Compound 272] | 98.544 | 
185 |  | COc1cc(F)cc(NC(=O)CN2C[C@@H]3C[C@H]2CN3CC(=O)NC2(C(F)(F)F)CC2)c1 [Compound 320] | 87.599 | 
 |  | COCC(C)(C)NC(=O)CN1C2CCC1CN(Cc1nc3c(Cl)cc(F)cc3[nH]1)C2 [Compound 80] | 96.659 | 
 |  | CC(C)(NC(=O)CN1C2CC1CN(Cc1nc3c(Cl)ccc(F)c3[nH]1)C2)C(F)(F)F [Compound 181] | 102.49 | 42.3
 |  | Cn1nc(C2CC2)cc1NC(=O)CN1CC2CCC(C1)N2CC(=O)NC(C)(C)C [Compound 4] | 15.896 | 
2800 | 40.739 | CC(C)(C)NC(=O)CN1CCN(Cc2nnc(-c3cc(F)cc(Cl)c3)[nH]2)CC1 [Compound 61, N-tert-butyl-2-[4-[[5-(3-chloro-5-fluoro-phenyl)-4H-1,2,4-triazol-3-yl]methyl]piperazin-1-yl]acetamide] |  | 
 |  | CC(C)(C)S(=O)(=O)CCN1C2CC1CN(CC(=O)Nc1cc(F)cc(Cl)c1)C2 [Compound 50] | 57.816 | 
 | 51.943 | CC(C)(C)NC(=O)CN1CCCN(CC(=O)Nc2cc(F)cc(Cl)c2)CC1 [Compound 34] |  | 
 |  | CC(C)(C)NC(=O)CN1C2COCC1CN(Cc1nc3c(Cl)cc(F)cc3[nH]1)C2 [Compound 148] | 11.572 | 
457 |  | O=C(CN1C[C@@H]2C[C@H]1CN2CC(=O)NC1(C(F)(F)F)CC1)Nc1ccc(F)c(Cl)c1 [Compound 25] | 66.125 | 
 |  | CC(C)(C)NC(=O)CN1C2CCC1CN(Cc1nc3c(C4CC4)cccc3[nH]1)C2 [Compound 203] | 94.049 | 
 |  | CC(C)(C)NC(=O)CN1C[C@@H]2CC[C@H]1CN2CC(=O)Nc1cc(F)cc(Cl)c1 [Compound 270] | 95.978 | 
 |  | O=C1CCCCN1CCN1C2CC1CN(Cc1nc3c(Cl)cc(F)cc3[nH]1)C2 [Compound 120] | 81.802 | 
703 |  | CC(C)(C)C(O)CN1C[C@@H]2C[C@H]1CN2CC(=O)NC12CC3CC(CC(C3)C1)C2 (some centres unmarked) [Compound 297] | 63.628 | 
 | 35.477 | Cc1cc(NC(=O)CN2CCN(CC(=O)NC(C)(C)C)CC2)n(C)n1 [Compound 39] |  | 
 |  | CN(C(=O)CN1C2CC1CN(Cc1nc3c(Cl)cc(F)cc3[nH]1)C2)C(C)(C)CO [Compound 128] | 18.511 | 
 |  | Cc1cccc2[nH]c(CN3CC4CCC(C3)N4CC(=O)NC(C)(C)C)nc12 [Compound 194] | 97.438 | 
 |  | Fc1cc(Cl)c2nc(CN3CC4CC(C3)N4CC3(F)CCC(F)(F)CC3)[nH]c2c1 [Compound 152] | 70.533 | < 78.2

IC50 [2] [nM] | % Inhibition (Single Point Data) [3] [%] | SMILES | % Inhibition (Single Point Data) [1] [%] | IC50 [nM]
370 |  | O=C(CN1C[C@@H]2C[C@H]1CN2CC(=O)N1CCC(F)(F)CC1)NC12CC3CC(CC(C3)C1)C2 [Compound 316] | 70.161 | 
 |  | CC(C)(C)NC(=O)CN1C2CCC1CN(Cc1nc3c(Cl)ccc(F)c3[nH]1)C2 [Compound 185, N-tert-butyl-2-[3-[(4-chloro-7-fluoro-1H-benzimidazol-2-yl)methyl]-3,8-diazabicyclo[3.2.1]octan-8-yl]acetamide] | 99.412 | < 78.2
803 |  | CC(C)(C)NC(=O)CN1C[C@H]2CC[C@@H]1CN2CC(=O)Nc1ccc(F)c(OC(F)F)c1 [Compound 266] | 61.569 | 
82 |  | CC(C)(C)NC(=O)CN1C[C@@H]2C[C@H]1CN2CC(=O)Nc1ccc(Cl)c(OC(F)F)c1 [Compound 357] |  | 
4770 |  | CC(C)(C)NC(=O)CN1C[C@@H]2C[C@H]1CN2C(=O)NC12CC3CC(CC(C3)C1)C2 [Compound 304] | 25.21 | 
1250 |  | CC1(NC(=O)CN2CC3CC2CN3CC(=O)Nc2ccc(F)c(Cl)c2)CC1 (centres unmarked) [Compound 234] | 51.647 | 
 |  | C[C@H](c1nc2c(Cl)cc(F)cc2[nH]1)N1CC2CCC(C1)N2CC(=O)NC(C)(C)C [Compound 118] | 102.64 | 
 |  | OC(CN1CCN(Cc2nc3c(Cl)ccc(F)c3[nH]2)CC1)C1CCCCC1 (centres unmarked) [Compound 156] | 86.133 | 
 |  | O=C(NCCN1C2CC1CN(Cc1nc3c(Cl)cc(F)cc3[nH]1)C2)C1(C(F)(F)F)CCC1 [Compound 138] | 98.457 | 
 |  | CN(CCN1C2CC1CN(Cc1nc3c(Cl)cc(F)cc3[nH]1)C2)C(=O)C1(C)CC1 [Compound 145] | 83.5 | 
2380 |  | CC(C)(C)NC(=O)CN1CC2CC1CN2CC(=O)Nc1cccc(Cl)c1 (centres unmarked) [Compound 131] | 83.36 | 
176 |  | O=C(CN1C[C@@H]2C[C@H]1CN2CC(=O)NC1(C(F)(F)F)CC1)Nc1cc(F)c(F)c(OC(F)F)c1 [Compound 359] |  | 
 |  | O=C(CN1C2CCC1CN(Cc1nc3c(Cl)cc(F)cc3[nH]1)C2)N1CCC(O)CC1 [Compound 88] | 61.278 | 
242 |  | CC(C(=O)Nc1ccc(F)c(Cl)c1)N1C[C@@H]2C[C@H]1CN2CC(=O)NC(C)(C)C (some centres unmarked) [Compound 264] | 85.955 | 
2080 |  | O=C(CN1C[C@@H]2C[C@H]1CN2CC(=O)NC1(C(F)(F)F)COC1)NC12CC3CC(CC(C3)C1)C2 [Compound 319] | 23.628 | 
 |  | C[C@@H](c1nc2c(Cl)cc(F)cc2[nH]1)N1CC2CCC(C1)N2CC(=O)NC(C)(C)C [Compound 119] | 95.894 | 
 |  | Cc1cc(CNC(=O)CN2C[C@@H]3C[C@H]2CN3CC(=O)NC(C)(C)C)nn1-c1ccccc1 [Compound 274] | 13.426 | 
416 |  | Fc1cc(Cl)c2nc(CN3CCN(CC(F)(F)C4CCCCC4)CC3)[nH]c2c1 [Compound 162] | 73.357 | 
 |  | CC1(C)CN(C(=O)CN2C3CCC2CN(Cc2nc4c(Cl)cc(F)cc4[nH]2)C3)C1 [Compound 91] | 97.882 | 
407 |  | CC(C)(NC(=O)CN1CC2CC1CN2Cc1nc2c(Cl)ccc(F)c2[nH]1)C(F)(F)F (centres unmarked) [Compound 149] | 99.801 | 

SMILES | IC50 [2] [nM] | % Inhibition (Single Point Data) [3] [%] | % Inhibition (Single Point Data) [1] [%] | IC50 [nM]
CC(C)(C)NC(=O)CN1C2CCC1CN(CCc1nc3c(Cl)cc(F)cc3[nH]1)C2 [Compound 195] | 1150 |  | 44.852 | 
OC1(CCN2C3CCC2CN(Cc2nc4c(Cl)cc(F)cc4[nH]2)C3)CCCC1 [Compound 92] | 175 |  | 98.505 | 
CC(C)(C)NC(=O)CN1C2CCC1CN(Cc1nc3cc(F)cc(Cl)c3o1)C2 [Compound 193] | 2200 |  | 23.525 | 
CC(C)Cc1cc(CNC(=O)CN2CC3CC(C2)N3CC(=O)NC(C)(C)C)nn1-c1ccccc1 [Compound 301] | 3240 |  | 19.445 | 
CC(C)(NC(=O)CN1C2CC1CN(Cc1nc3c(OC(F)F)ccc(F)c3[nH]1)C2)C(F)(F)F [Compound 184] | 200 |  | 86.326 | 
N#CC1(CN2C3CC2CN(Cc2nc4c(Cl)ccc(F)c4[nH]2)C3)CCCCC1 [Compound 178] | 1390 |  | 43.012 | 
COc1cc(NC(=O)CN2CC3CC(C2)N3CC(=O)NC(C)(C)C)ccc1F [Compound 248] | 530 |  | 64.348 | 
CC(C)(C)NC(=O)CN1C2CC1CN(CC(=O)NC13CC4CC(CC(F)(C4)C1)C3)C2 [Compound 315] | 592 |  | 72.558 | 
CC(C)(C)NC(=O)CN1C2CC1CN(CC(=O)Nc1ccc(F)c(C(F)(F)F)c1)C2 [Compound 249] | 1010 |  | 99.326 | 
CC(C)(C)NC(=O)CN1CC2CC1CN2CC(=O)Nc1cc(F)cc(Cl)c1 (centres unmarked) [Compound 130] | 121 |  | 92.618 | 
CC(C)(C)NC(=O)CN1CC2COCC(C1)N2Cc1nc2c(Cl)cc(F)cc2[nH]1 [Compound 153] | 386 |  | 82.059 | 
CC1(OC(=O)CN2C3CC2CN(Cc2nc4c(Cl)cc(F)cc4[nH]2)C3)CC1 [Compound 140] | 283 |  | 79.539 | 
CC(C)(C)NC(=O)CN1C2CC1CN(CC(=O)Nc1cc(Cl)cc(Cl)c1)C2 [Compound 286] | 106 |  | 89.866 | 
O=C(CN1CC2CC(C1)N2CC(=O)NC1(C(F)(F)F)CC1)Nc1cc(F)c(F)c(Cl)c1 [Compound 349] | < 78.2 |  |  | 
Fc1cc(Cl)c2nc(CN3CC4CC(C3)N4CC(F)C3CCCCC3)[nH]c2c1 (centres unmarked) [Compound 169] | 297 |  | 84.629 | 
CC(C)(C)NC(=O)CN1C2CCC1CN(Cc1nc3ccccc3[nH]1)C2 [Compound 188] | 485 |  | 75.55 | 
CC(C)(C)NC(=O)CN1C2CC1CN(CC(=O)Nc1cc(F)cc(C#N)c1)C2 [Compound 220] | 671 |  | 80.621 | 
